Here are results for 34 molecules from a melting point compilation (Tetko et al.; mined from patent text by program, amines drawn as free bases though some values may be those of a salt).

Some results are limits rather than exact numbers.

For the molecule `CCC(CC)Nc1cc(C)nc(Nc2c(C)cc(C)cc2C)c1N`, the melting point was in the range of 213 to 216 °C.

Turning to `Cc1cc(-c2ccc(C(F)(F)F)cc2)cc(-c2nc(-c3cccc(S(N)(=O)=O)c3)cs2)n1`, the melting point is above 250 °C.

`CCC1CN2C(C)=Nc3c(C)nn(C)c3C2=N1` (centres undefined) registered a melting point of 121 to 123 °C.

As to `CC(Nc1ccccc1)=C(C#N)C(=O)Nc1ccccc1Cl`, the melting point fell in the range of 110 to 112 °C.

As for `CCCCc1ncc(CC(NC(=O)C(c2ccccc2)c2ccccc2)C(=O)O)n1Cc1ccccc1Cl` (centres undefined), the melting point was 222 to 225 °C.

`Cc1c(N2C(=O)C[C@H](O)[C@@H]2C)ccc(C#N)c1F` showed a melting point of 114 to 115 °C.

In turn, `CC(C)c1cnc(NC(=O)Cc2csc(NC(=O)CN(C)C)n2)s1` had a melting point of 70 to 71 °C.

For the molecule `COC(=O)c1ccc(N2CCOCC2)c(NC(=N)N)c1`, the melting point fell in the range of 152 to 154 °C.

Molecule `Cc1ccc(C(=O)c2noc(CS(=O)c3ccccc3)n2)cc1` (centres undefined) registered a melting point of 97 to 99 °C.

In the case of `CCOC(=O)CCCC(=O)c1ccc(Br)s1`, the melting point was 53 to 54 °C.

In the case of `CCOC(=O)c1cc2c3ccccc3[nH]c(=O)n2n1`, the melting point fell in the range of 242 to 244 °C.

`CN1CCN(c2n[nH]c(-c3ccc(F)cc3)c2-c2ccncc2)CC1` displayed a melting point of 238 to 240 °C.

`COc1cc(OC)c(C2=NC(NC(=O)Nc3cccc(C)c3)C(=O)N(C)c3ccccc32)c(OC)c1` (centres undefined): the melting point stood at 240 °C.

As to `CC(=O)OC/C(=C(\C(=O)N(C)CC(C)(C)SN=O)c1ccc(F)cc1)c1ccc(S(C)(=O)=O)cc1`, the melting point is 37 to 38 °C.

On to `CC(=O)NCc1ccc(CN2CCN(c3ccc(F)cc3NC(C)=O)CC2)cc1`, for which the melting point was 148 to 150 °C.

Turning to `Cn1cc(-c2ccccc2)c(=O)c(-c2cc(C(F)(F)F)ccc2Cl)c1`, the melting point is 150 to 152 °C.

`CCC(CC)c1ccc(CN2CCCC2)c2nc(Oc3c(C)cc(Cl)cc3Cl)n(C)c12`: the melting point was 107 to 108 °C.

In turn, `CCOC(=O)c1cnn(-c2ccc(Cl)c(Cl)c2)c1C#N` gave a melting point of 79 to 81 °C.

`COc1cc(C(F)(F)F)nc(NC(=O)Oc2ccccc2)n1` registered a melting point of 85 to 88 °C.

Consider `CCCCCS(=O)(=O)NC(=O)C=Cc1ccc(OCCCC#N)cc1Oc1ncc(C(F)(F)F)cc1Cl`, for which the melting point lay in the range of 165 to 166 °C.

Molecule `CN(C)CCNC(=O)CCn1c(-c2ccc(Cl)cc2)nc2cccnc21` had a melting point of 142 to 143 °C.

The molecule `CC(=O)Nc1ccc(-c2ccc(CC34CCCN3C(=O)N(c3cc(Cl)cc(Cl)c3)C4=O)cc2)cc1` (centres undefined) yielded a melting point of 124 °C.

`CC(C)(C)OC(=O)N(Cc1ccccc1)C1(CO)CC1` had a melting point of 68 °C.

Turning to `Cc1c(NC(=O)c2ccc(OC[C@@H]3CCCO3)cc2)ccc2c1cc(CNCC(C)C)n2C`, the melting point is 162 °C.

The molecule `CCOC(=O)c1nc2c(=O)[nH]c3cc(S(C)(=O)=O)ccc3n2c1C` yielded a melting point above 250 °C.

As for `N#Cc1cc(N2CCN(CC[C@H]3CC[C@H](NS(=O)(=O)c4cccnc4)CC3)CC2)cc(C(F)(F)F)c1`, the melting point was in the range of 194 to 195 °C.

Molecule `O=C1N(CC2CCOCC2)c2ccccc2C12COc1cc3c(cc12)OCO3` (centres undefined) displayed a melting point of 142 to 144 °C.

The molecule `COCc1cnc2c([N+](=O)[O-])ccc(C)c2c1Cl` showed a melting point of 120 to 124 °C.

`Oc1ccc(-c2nc(-c3ccc(F)cc3)c(-c3ccncc3)[nH]2)cc1` came in with a melting point of 214 to 215 °C.

Regarding `CC(C)n1cc(C(=O)Nc2nncs2)c2ccc(Cl)cc21`, the melting point is 274 to 275 °C.

With `CCS(=O)(=O)CCC(=O)NNC(=O)N1Cc2ccccc2Oc2ccc(F)cc21`, the melting point was 191 to 193 °C.

Consider `CC1CCC(C(C)C)C(OC(=O)C2(CC(=O)OC(C)(C)C)C(=O)N(Cc3ccc(Br)cc3F)C(=O)c3cccn32)C1` (centres undefined), for which the melting point was 99 to 100 °C.

Turning to `O=C1Nc2cc(F)ccc2C1c1ncnc2nn(C3CCCCC3)cc12` (centres undefined), the melting point is 297 to 300 °C.

`C=CCN1CCCCNC1=C[N+](=O)[O-]`: the melting point was 82 to 83 °C.

As a reminder, the melting point is the temperature of the solid-liquid transition.
